Reference: patent US10047067B2, “Composition for treating kidney disease comprising pyrazole derivative” (Ewha University-Industry Collaboration Foundation, priority 2012, dated 2018)
Entries after “also recorded” stand apart in the source; their conditions may differ.

Assays:
[1] = test system: C57BL/6J mice; assay: Collagen accumulation (Masson's trichrome, picrosirius red) and macrophage marker F4/80 immunohistochemical staining of renal tissue; assay type: in vivo; conditions: treatment group vs diabetes group, 10 mg/kg/day oral, 12 weeks; listed as Example 1, 10 mg/kg/day
Protocol: Immunohistochemical staining was performed as previously disclosed (Noh H, Kim J S, Han K-H, Lee G T, Song J S, Chung S H, Jeon J S, Ha H, Lee H B: Oxidative stress during peritoneal dialysis: implications in functional and structural changes in the membrane. Kidney Int. 69: 2022-2028, 2006).
Briefly, as described in Example 11, diabetes was induced in mice that were then treated with 1-(pyridin-2-yl)-3-phenyl-4-propyl-1H-pyrazol-5-ol.HCl, the compound of Example 1, and scarified 12 weeks later. After cardiac perfusion with 0.1 M PBS (phosphate-buffered saline), tissue fixation was performed overnight with 2% PLP (paraformaldehyde-lysine-periodate). Paraffin embedding was conducted by sequential treatment with: 70% ethanol for 1 hr; 80% ethanol for 1 hr; 90% ethanol for 1 hr; 95% ethanol for 1 hr, twice; 100% ethanol for 1 hr, three times; xylene for 30 min, twice; paraffin for 30 min; and paraffin for 1.5 hrs. The paraffin tissue was sliced into a section 4 μm thick, followed by deparaffinization with alcohol. In order to enhance antibody penetration thereinto, the renal tissue was immersed in 10 mM citrate buffer (pH 6.0), heated with microwaves (at 700 watts for 5 min and then at 100 watts for 5 min), and then finally incubated at room temperature for 30 min Intrinsic peroxidase was removed by treatment with peroxidase blocking reagent (Peroxidase Blocking Reagent Ready-To-Use, Dakocytomation) for 30 min. Subsequently, the renal tissue was incubated with a protein block serum-free solution (Protein Blocking Serum-Free Ready-To-Use, Dakocytomation) for 15 min and then overnight with a primary antibody (F4/80, Santa Cruz) at 4° C., followed by amplification with ABC kit (Santa Cruz) using the ABC (avidin-biotin-enzyme complex) method. […]
To examine tissue injury, staining was performed with Masson's trichrome (Sigma-Aldrich) and picrosirius red (Sigma-Aldrich) according to the manufacturer's instructions. The degree of tissue injury was expressed as tubulointerstitial collagen accumulation per area. […]

[2] = test system: collagen Iα1 expression in proximal tubular cells (mProx24); assay: Inhibitory effect on collagen Iα1 expression in proximal tubular cells (hTGF-β1 stimulated, real-time PCR); assay type: cell-based; conditions: Mus musculus
Protocol: mProx24, which is a name of the proximal tubular cells derived from proximal tubule segments obtained by finely sectioning the kidney of adult C57BL6/J mice, was granted from Professor Sugaya, St. Marianna University School of Medicine, Kanagawa, Japan. mProx24 was cultured in DMEM (Dulbecco's modified Eagle's medium) supplemented with 10% fetal calf serum (FCS, Gibco), 100 U/ml penicillin, 100 μg/ml streptomycin, and 44 mM NaHCO3 at 37° C. in a 5% CO2 atmosphere. For quantitation of RNA expression, the cells were cultured in 6-well plates. When the cells grew 90% confluent, the medium was changed with a fresh 0.15% FCS (Gibco)-supplemented DMEM. Incubation in this medium for 24 hrs halted the cell growth to synchronize the growth cycle in the cells. Compounds of Examples 1 to 9 and Comparative Example were respectively dissolved in DMSO (dimethylsulfoxide) to form a concentration of 50 mM, and subjected to serial dilution to 10 mM, 1 mM, 0.1 mM, and 0.01 mM. 10 mM, 1 mM, 0.1 mM, and 0.01 mM solutions of each of the compounds of Examples 1 to 9 and Comparative Example were 1,000-fold diluted in 0.15% FCS (Gibco)-supplemented DMEM to form final concentrations of 10 μM, 1 μM, 0.1 μM, and 0.01 μM, respectively. In addition, 0 μM (DMSO 1 μL) was used. The cells were incubated for 1 hr in the dilutions and then for 6 hrs in the presence of 5 ng/ml recombinant human transforming growth factor-β1 (hTGF-β1, R&D Systems). For the control, hTGF-β1 was not used. Total RNA was extracted from mProx24 using Trizol (Invitrogen). For quantitation of mRNA expression, a reaction volume of 20 μL including cDNA transcripts, primer pairs, and SYBR Green PCR Master Mix (Applied Biosystems) was subjected to real-time PCR with the aid of StepOnePlus (Applied Biosystems) (real-time PCR condition: 95° C., 10 min→40 thermal cycles of denaturation at 95° C. for 15 sec and primer annealing at 60° C. for 1 min→95° C. for 15 sec, 60° C. for 1 min, and 95° C. for 15 sec to measure a melting curve). Quantitation was normalized to 18S rRNA expression level. A pair of primers for mouse collagen Iα1 were 5′-[…]-3′(SEQ ID NO: 13) and 5′-[…]-3′ (SEQ ID NO: 14). Forward and reverse primers for mouse r18S rRNA were 5′-CGAAAGCATTTGCCAAGAAT-3′ (SEQ ID NO: 11) and 5′-AGTCGGCATCGTTTATGGTC-3′ (SEQ ID NO: 12), respectively.
Experiment results are given in Tables 3 to 12 and FIGS. 4 to 13. Tables 3 to 12 and FIGS. 4 to 13 show inhibitory effects of the compounds of Examples 1 to 9 and Comparative Example 1 on collagen Iα1 expression in proximal tubular cells.
Data of Tables 3 to 12 and FIGS. 4 to 13 are measurements of experiments repeated three to five times for each concentration, and are expressed as mean±standard error (SE). Statistic comparison among the groups was analyzed by ANOVA and Fisher's least significant difference test, with significance at p<0.05. *P<0.05 vs. WT, †P<0.05 vs. DM.
In Tables 3 to 12, mean values of expression level ratios of collagen Iα1 (Col1α) to 18S rRNA (18S), and % inhibition against collagen Iα1 expression for each group are shown, together with IC50 value (μM). In this regard, % inhibition means relative inhibition to 100% for the control and 0% for the group that was treated with hTGF-β1 but not with any of the compounds of Examples or Comparative Example.

In the case of `CCCc1c(-c2ccccc2)nn(-c2ccccn2)c1O.Cl` [Compound 18-278, 1-(pyridin-2-yl)-3-phenyl-4-propyl-1H-pyrazol-5-ol.HCl], the “collagen accumulation, Masson's trichrome staining (blue area)” value [1] is reported as “in a smaller area than was the diabetes group; also recorded: significantly reduced”, the “collagen accumulation, picrosirius red staining (red area)” value [1] is reported as “a smaller area; also recorded: significantly reduced” and the “macrophage production, immunohistochemical staining (F4/80)” value [1] is reported as “in a smaller area than was the diabetes group; also recorded: significantly reduced”. The mrna remaining at 0.01 µM ([2]; Col1, 0.01 μM compound, mProx24, 5 ng/ml hTGF-β1 6 hrs, relative to hTGF-β1 alone = 1, read-out: Mean expression level ratio of collagen Iα1 (Col1α) to 18S rRNA) was 82.1%, the mrna remaining at 0.1 µM ([2]; Col1, 0.1 μM compound, mProx24, 5 ng/ml hTGF-β1 6 hrs, relative to hTGF-β1 alone = 1, read-out: Mean expression level ratio of collagen Iα1 (Col1α) to 18S rRNA) was 70.1% and the mrna remaining at 1 µM ([2]; Col1, 1 μM compound, mProx24, 5 ng/ml hTGF-β1 6 hrs, relative to hTGF-β1 alone = 1, read-out: Mean expression level ratio of collagen Iα1 (Col1α) to 18S rRNA) was 51.6%. It also gave a mrna remaining at 10 µM ([2]; Col1, 10 μM compound, mProx24, 5 ng/ml hTGF-β1 6 hrs, relative to hTGF-β1 alone = 1, read-out: Mean expression level ratio of collagen Iα1 (Col1α) to 18S rRNA) of 36.9%, an inhibition at 0.01 µM ([2]; 0.01 μM compound, mProx24, 100% = control without hTGF-β1, 0% = hTGF-β1 alone, read-out: expression inhibition rate (collagen Iα1)) of 20% and an inhibition at 0.1 µM ([2]; 0.1 μM compound, mProx24, 100% = control without hTGF-β1, 0% = hTGF-β1 alone, read-out: expression inhibition rate (collagen Iα1)) of 33.5%. For the same molecule, the inhibition at 1 µM ([2]; 1 μM compound, mProx24, 100% = control without hTGF-β1, 0% = hTGF-β1 alone, read-out: expression inhibition rate (collagen Iα1)) was 54.2%, the inhibition at 10 µM ([2]; 10 μM compound, mProx24, 100% = control without hTGF-β1, 0% = hTGF-β1 alone, read-out: expression inhibition rate (collagen Iα1)) was 70.7% and the IC50 ([2]; mProx24, hTGF-β1 stimulated, read-out: IC50 (inhibition of collagen Iα1 expression)) was 742 nM.
